From patent US20030124159A1, “Enhancing epidermal barrier development in skin” (Unilever Home & Personal Care USA, Division of Conopco, Inc, priority 2001, published 2003)
Each block holds one compound with its values, some of them ahead of it.

Experiments:
human LXR = target: T1, human LXR (Homo sapiens, UniProt Q13133); experiment: Reporter gene assay for activation of LXRα in transfected cos-7 cells; format: cell-based
T1 construct: expressed in transfected cells; host or cells: cos-7 cells (ECACC No. 87021302)
T1 sequence (Q13133 1-447): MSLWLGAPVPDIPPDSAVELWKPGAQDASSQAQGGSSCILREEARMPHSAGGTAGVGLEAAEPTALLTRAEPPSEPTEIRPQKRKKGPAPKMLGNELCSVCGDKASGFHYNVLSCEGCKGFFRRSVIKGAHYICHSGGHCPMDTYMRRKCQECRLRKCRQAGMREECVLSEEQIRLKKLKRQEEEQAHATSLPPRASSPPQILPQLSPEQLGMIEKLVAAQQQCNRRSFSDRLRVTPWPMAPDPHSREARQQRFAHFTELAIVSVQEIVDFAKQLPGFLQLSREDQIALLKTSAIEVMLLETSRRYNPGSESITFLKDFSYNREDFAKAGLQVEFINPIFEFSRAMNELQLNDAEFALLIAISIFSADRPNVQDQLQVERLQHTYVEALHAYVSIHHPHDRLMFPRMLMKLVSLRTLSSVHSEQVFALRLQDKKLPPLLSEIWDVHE
T1 sequence (P19793 1-462 partner): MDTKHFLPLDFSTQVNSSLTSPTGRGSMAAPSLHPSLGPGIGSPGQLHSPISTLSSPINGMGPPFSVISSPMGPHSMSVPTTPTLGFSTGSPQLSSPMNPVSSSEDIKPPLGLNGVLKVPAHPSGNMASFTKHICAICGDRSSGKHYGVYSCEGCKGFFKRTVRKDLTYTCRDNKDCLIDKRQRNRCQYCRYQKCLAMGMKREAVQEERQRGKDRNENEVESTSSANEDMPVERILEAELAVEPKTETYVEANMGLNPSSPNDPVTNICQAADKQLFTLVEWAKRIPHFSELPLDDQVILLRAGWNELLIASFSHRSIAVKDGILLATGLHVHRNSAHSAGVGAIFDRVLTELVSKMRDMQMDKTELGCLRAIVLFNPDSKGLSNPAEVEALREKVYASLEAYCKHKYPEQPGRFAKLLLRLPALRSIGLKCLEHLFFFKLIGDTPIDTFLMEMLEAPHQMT
Protocol: The activation of LXRα has been determined by a reporter gene assay based on that described by Kliewer et al (Nature 358 771-774 1992). Wherein cos-7 cells (ECACC No. 87021302) were seeded in 24-well plates at a density of 5×10^4 cells/well. Cells were grown overnight at 37° C./5% CO2 in DMEM containing 10% FCS, 2mM L-glutamine, […] penicillin and 100 µg/ml streptomycin.
A commerically available vector-pNFκB-Luc (Clontech) was used as the basic reporter plasmid as it contained the firefly luciferase gene downstream of the thymidine kinase promoter element. The NFκB consensus sequence was exised using restriction enzymes Mlu I and Bgl II and replaced with 3 direct repeats of the DNA response element sequence for the LXR nuclear receptor.
The response element was taken from Willy, P. et al (1995)(from a promoter region of the mouse mammary tumour virus), and repeated three times and encorporated restriction enzyme sites for Mlu I and Bgl II at either end to orientate the fragment during cloning (FIG. 5). This long oligonucleotide was synthesised, and an annealing primer designed to allow production of a double-stranded DNA template by Klenow fill-in.
This dsDNA template along with the vector pNFκB-Luc were then cut with both Mlu I and Bgl II restriction enzymes to allow cloning of the insert into this vector. ligation of the insert and vector occurred, followed by heat-shock transformation into a E. coli strain (JM109) followed by selection of recombinants on LB agar+Ampicillin (100 μg/ml). Mini liquid cultures of each colony generated were established and mini-plasmid preparations done (Qiagen protocols followed), furthered by restriction digests to check the size of the recombinant insert.
The pRSV/hRXRα was prepared via the method of Collingwood T N et al. 1997. J Biol Chem. 272: 13060-5. Transformation was performed as described above, and bulk plasmid preparations were performed from 100 ml overnight cultures. The selectable antibiotic for this vector was 100 μg/ml Ampicilin.
Transfection of cells was performed using Lipofectamine (Gibco Brl) as directed by the manufactures. Transfected cells were incubated for 5 h at 37° C./5% CO2 and serum then added to a final concentration of 2%. Cells were then incubated for a further 24 hours in the presence or absence of ligand. After 24 hours cell lysates were prepared and the level of firefly and renilla luciferase determined using the Dual luciferase assay system (Promega) and a MLX microtitre plate luminometer (Dynex).
Cells were washed with transfection media (DMEM) then transiently transfected with 4 plasmids: a LXR-responsive firefly luciferase reporter gene (pLXRE-luc); mammalian expression plasmids (pcDNA3.1/LXR, and pRSV/hRXRα) containing human LXR and RXRα cDNAs respectively and a control plasmid (pRLTK, Promega) which constitutatively expresses the renilla luciferase gene.
Transfected cells were incubated for 5 h at 37°C./5% CO2 and serum then added to a final concentration of 2%. Cells were then incubated for further 24 hours in the presence or absence of ligand. After 24 hours cell lysates were prepared and the level of firefly and renilla luciferase determined using the Dual luciferase assay system (Promega) and a MLX microtitre plate luminometer (Dynex). The level of firefly luciferase (normalised against the renilla luciferase control) provides a measure of reporter gene activity. This in turn reflects the level of LXR activation
The level of firefly luciferase (normalised against the renilla luciferase control) provides a measure of reporter gene activity which in turn reflects the level of LXRα activation.

filaggrin = experiment: RNA expression analysis of filaggrin in human epidermal cultures (Integriderm array); format: cell-based
Protocol: Commercially available human epidermal cultures were obtained from Skin Ethic™. The cultures were incubated in DMEM supplemented with guggul sterone (conctri) or vehicle alone (X % ethanol) for X days. Medium was replaced every day.
RNA was then extracted from cultures using the Qaigen RNEasy™ minikit according to manufacturers' instructions. The RNA was than DNAse treated and quantified by measuring OD at 260 & 280 nm with a spectrophotometer.
The level of gene expression was then determined using the Integridenm array from Research Genetics. RNA expression in guggul sterone treated cultures was compared to that in cultures treated with vehicle alone according to manufacturers' instructions broadly detailed below.
To prehybridise, each membrane was placed in a seperate roller bottle with the DNA spotted side facing inwards 5.0 ml MicroHyb (Research Genetics #HYB125.GF) was added to each bottle as well as the blocking agents;
20 ul mastermix was added to each tube containing RNA and oligo dT, and the reaction incubated at […] 42° C. for 90 mins. Bio-Spin 6 columns (Bio-Rad #732-6002) were then used to remove unincorporated nucleotides according to the manufacturer's instructions.
The cDNA was denatured by heating to 99° C. for 3 mins and chilled on ice for 2 mins. Hybridisation was carried out at 42° C. for 16-20 hrs in a rotating oven.
Membranes were washed 4× with ˜30 ml wash 1 solution (2× SSC, 1% SDS) at 50° C. for 20 mins/wash in rotating oven. This was followed by 2 further washes in ˜30 ml wash 2 solution (0.5× SSC, 1% SDS) at 50° C. for 15 mins/wash in a rotating oven.
Images of the membranes were obtained using a phosphorimager (Molecular Dynamics) using a pixel size of 100 u during the scanning. Images were converted to “TIF” files to allow analysis using Pathways™2.01 software (Research Genetics) and spot intensities compared to indicate changes in RNA expression. Each array contains 3 separate spots of filaggrin DNA and the average of all 3 spot intensities was calculated for each array. […]

- Reporter Gene Activity Foloinduction relative to vertical Mean (human LXR; 16 μM, cos-7 cells, 24 hours with ligand, firefly luciferase normalised against renilla): 3.9
- Reporter Gene Activity Foloinduction relative to vertical Mean (human LXR; 32 μM, cos-7 cells, 24 hours with ligand, firefly luciferase normalised against renilla): 8
- Reporter Gene Activity Foloinduction relative to vertical Mean (human LXR; 64 μM, cos-7 cells, 24 hours with ligand, firefly luciferase normalised against renilla): 17.3
SMILES: C/C=C1\C(=O)C[C@H]2[C@@H]3CCC4=CC(=O)CC[C@]4(C)[C@H]3CC[C@]12C [Cis-guggal Sterone]
- Spot intensity (filaggrin) (filaggrin; human epidermal cultures, average of 3 filaggrin spots, normalised against average intensity of all spots): 2885
- Changes in the expression relative to vehicle (filaggrin) (filaggrin; human epidermal cultures, relative to vehicle): 1.54 (+/−0.17)
- filaggrin mRNA levels (in words) (filaggrin; treatment of epidermal cultures): elevation of filaggrin mRNA levels

SMILES: CC(C)CC[C@@H](O)[C@@H](C)[C@H]1CC[C@H]2[C@@H]3CC=C4C[C@@H](O)CC[C@]4(C)[C@H]3CC[C@]12C [22R-hydroxycholesterol, reference compound]
- Reporter Gene Activity Foloinduction relative to vertical Mean (human LXR; 32 μM, positive control in desmosterol experiment): 4.8
- Reporter Gene Activity Foloinduction relative to vertical Mean (human LXR; 35 μM, positive control in cis-guggal sterone experiment): 6
- Reporter Gene Activity Foloinduction relative to vertical Mean (human LXR; 50 μM, positive control in cis-guggal sterone experiment): 6.59

SMILES: CC(C)=CCC[C@@H](C)[C@H]1CC[C@H]2[C@@H]3CC=C4C[C@@H](O)CC[C@]4(C)[C@H]3CC[C@]12C [Desmosterol, cholesta-5,24-dien-3β-ol]
- Reporter Gene Activity Foloinduction relative to vertical Mean (human LXR; 26 μM, cos-7 cells, 24 hours with ligand, firefly luciferase normalised against renilla): 9.27
